From PubChem BioAssay (NCI)
Several values for one entry are separate records, joined by “and”; a condition that tells them apart may be missing. Identical values can stand only once.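 Dose response: 5 concentrations. Exposure: 48 h. Format: 96-well plates. Endpoint: linear interpolation; highest concentration if not reached. GI50: concentration for 50% inhibition of growth. TGI marks complete inhibition of growth.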

How the values were obtained:
Test in all cases: NCI-60 cell line screen, 48 h
SK-MEL-2 melanoma = system: SK-MEL-2 melanoma
SNB-19 CNS = system: SNB-19 CNS
MOLT-4 leukemia = system: MOLT-4 leukemia
MDA-MB-435 = system: MDA-MB-435
COLO 205 colon = system: COLO 205 colon
HOP-92 NSCLC = system: HOP-92 NSCLC
HT29 colon = system: HT29 colon
UACC-62 melanoma = system: UACC-62 melanoma
CAKI-1 renal = system: CAKI-1 renal
SF-539 CNS = system: SF-539 CNS

Row | Compound | GI50 (SK-MEL-2 melanoma) | TGI (SK-MEL-2 melanoma) | GI50 (SNB-19 CNS) | TGI (SNB-19 CNS) [µM] | GI50 (MOLT-4 leukemia) | TGI (MOLT-4 leukemia) [µM] | GI50 (MDA-MB-435) | TGI (MDA-MB-435) | GI50 (COLO 205 colon) | TGI (COLO 205 colon) | GI50 (HOP-92 NSCLC) | TGI (HOP-92 NSCLC) | GI50 (HT29 colon) | TGI (HT29 colon) [µM] | GI50 (UACC-62 melanoma) | TGI (UACC-62 melanoma) | GI50 (CAKI-1 renal) | TGI (CAKI-1 renal) | GI50 (SF-539 CNS) | TGI (SF-539 CNS)
1 | O=C1N=C(Nc2nc(-c3csc(NC4=NC(=O)/C(=C\c5ccc(Cl)cc5)S4)n3)cs2)S/C1=C/c1ccc(Cl)cc1 | > 50 µM | > 50 µM | 12 µM | > 50 | 1.69 µM | > 50 | 12.8 µM | > 50 µM | 29.9 µM | > 50 µM | 8.61 µM | 28.5 µM | 23.6 µM | > 50 | 6.03 µM | 16.4 µM | 20 µM | > 50 µM | 15.4 µM | 46.2 µM
2 | FC(F)(F)c1ccc(NCc2nc3ccccc3[nH]2)cc1 | 20.7 µM | 42.1 µM | 34.3 µM | > 100 | 21.6 µM | 63 | 22.4 µM | 74.6 µM | 19.2 µM | 34.3 µM | 12.9 µM | 36.8 µM | 27.9 µM | 81.3 | 18.7 µM | 56.5 µM | 19.4 µM | 49.4 µM | 36.8 µM | > 100 µM
3 | N=C1C(c2nc3ccccc3s2)=C(O)CN1c1cc(Cl)cc(Cl)c1 | > 100 µM | > 100 µM | > 100 µM | > 100 | > 100 µM | > 100 | > 100 µM | > 100 µM | > 100 µM | > 100 µM | 59.3 µM | > 100 µM | > 100 µM | > 100 | > 100 µM | > 100 µM | > 100 µM | > 100 µM | 34.3 µM | > 100 µM
4 | CS(=O)(=O)N1CCc2c(-c3cnc(N)nc3)nc(N3CCOCC3)nc21 | 1.28 µM and 1.77 µM | 8.66 µM and 14 µM | 2.21 µM and 1.64 µM | > 59.5 | 0.92 µM and 0.807 µM | > 100 | 0.94 µM and 0.78 µM | > 10 µM and 12.6 µM | 0.444 µM and 0.516 µM | > 10 µM and 13 µM | 0.102 µM and 0.112 µM | 0.641 µM and 1.35 µM | 0.26 µM and 0.307 µM | > 77.5 | 0.28 µM and 0.393 µM | 2.24 µM and 2.9 µM | 0.484 µM and 0.651 µM | > 10 µM and 7.76 µM | 0.835 µM and 0.878 µM | 4.13 µM and 3.89 µM
5 | COc1cccc(/C=C\c2ccnc3ccccc23)c1 |  | > 10 µM |  | > 10 |  | > 10 |  | > 10 µM |  | > 10 µM |  | > 10 µM |  | > 10 |  | > 10 µM |  | > 10 µM |  | > 10 µM
6 | CC(C)[C@H](C(=O)O[C@@H]1/C=C/C(=O)O[C@@H](C)CCC/C=C/[C@@H]2C[C@H](O)C[C@H]21)N(C)C | 17 µM | > 63.2 µM | 30.2 µM | > 100 | 14.9 µM | 42.2 | 5.84 µM | > 55.8 µM | 3.49 µM | 9.67 µM | 36.4 µM | 96.4 µM | 4.67 µM | > 36 | 16.8 µM | > 89.2 µM | 19.4 µM | > 73.8 µM | 10.2 µM | 58.9 µM
7 | N#Cc1c(N)c(C#N)c2c(c1-c1ccc(Cl)cc1)COc1ccc(F)cc1-2 | > 50 µM | > 50 µM | > 50 µM | > 50 | > 50 µM | > 50 | > 50 µM | > 50 µM | > 50 µM | > 50 µM | > 50 µM | > 50 µM | 49.7 µM | > 50 | 46.4 µM | > 50 µM | 21 µM | > 50 µM | 28.2 µM | > 50 µM
8 | Cc1cc2c(cc1Cl)N1C(=O)NS(=O)(=O)N=C1NS2(=O)=O | > 100 µM | > 100 µM | > 100 µM | > 100 | > 100 µM | > 100 | > 100 µM | > 100 µM | > 100 µM | > 100 µM | > 100 µM | > 100 µM | > 100 µM | > 100 | > 100 µM | > 100 µM | > 100 µM | > 100 µM | > 100 µM | > 100 µM
9 | COc1cc(/C=C/c2ccccn2)cc(OC)c1OC |  | > 10 µM |  | > 10 |  | > 10 |  | > 10 µM |  | > 10 µM |  | > 10 µM |  | > 10 |  | > 10 µM |  | > 10 µM |  | > 10 µM
10 | Cc1c(O)c(Br)c(C)c(O)c1Br (tested in a mixture with another compound) |  | 10.7 µM |  | 41.7 |  | 3.09 |  | 3.44 µM |  | 3.6 µM |  | 3.03 µM |  | 4.78 |  | 10.8 µM |  | 3.67 µM |  | 10 µM
11 | Oc1cccc(-c2nc(-c3ccccc3)[nH]c2-c2ccncc2)c1 | 6.91 µM | 18.9 µM | > 25 µM | > 25 | 24.9 µM | > 25 | 4.31 µM | > 25 µM | 4.88 µM | 12.2 µM | 5.98 µM | 24.2 µM | 7.46 µM | > 25 | 1.59 µM | > 25 µM | 18.7 µM | > 25 µM | 17.6 µM | > 25 µM
12 | COC1=CC2CCN3Cc4cc5c(cc4C(C1O)C23)OCC5 (stereo not given) | 14.4 µM | > 43 µM | 0.992 µM | > 24.5 | 2.11 µM | > 100 | 3.44 µM | 21.3 µM | 0.513 µM | 1.92 µM | 2.97 µM | > 28 µM | 0.97 µM | 9.48 | 2.05 µM | 11.1 µM | 2.49 µM | 8.36 µM | 3.95 µM | 21.3 µM
13 | COc1c2ccccc2c(O)c2c(=O)ccn(C)c12 | 22.6 µM | > 100 µM | 7.77 µM | > 100 | 17.9 µM | > 83.8 | 2.03 µM | 4.32 µM | 7.7 µM | > 100 µM | 25.6 µM | 91.1 µM | 16.5 µM | > 100 | 2.75 µM | 7.5 µM | 8.59 µM | 52.9 µM | 11.5 µM | 89.6 µM
14 | CC(=O)C(C=O)C(C)=O.CC(=O)CC(C)=O.CC(=O)CC(C)=O.[Ru] | 24.3 µM | > 100 µM | 52.1 µM | > 100 | 28.6 µM | > 100 | 43.5 µM | > 100 µM | 29.9 µM | > 100 µM | 17.4 µM | 94.1 µM | 21 µM | > 100 | 0.589 µM | 19.1 µM | 27.5 µM | 72.4 µM | 3.8 µM | 26.3 µM
15 | CC[C@@]1(O)C(=O)NCc2c1cc1n(c2=O)Cc2cc3c(NC(C)=O)cccc3nc2-1 | > 100 µM | > 100 µM | > 100 µM | > 100 | > 100 µM | > 100 | > 100 µM | > 100 µM | > 100 µM | > 100 µM | > 100 µM | > 100 µM | > 100 µM | > 100 | > 100 µM | > 100 µM | > 100 µM | > 100 µM | > 100 µM | > 100 µM
16 | COc1cc(NC(=O)c2ccccc2Nc2ccnc(C(F)(F)F)c2)cc(OC)c1OC | 51.1 µM | > 100 µM | 77.1 µM | > 100 | 36.9 µM | > 100 | 63.3 µM | > 100 µM | 41.9 µM | > 100 µM | 23.2 µM | 74.1 µM | 65 µM | > 100 | 36.8 µM | > 100 µM | 50.4 µM | > 100 µM | > 100 µM | > 100 µM
17 | OCc1ccc(N(Cc2ccc(F)cc2)CC2CCC2)cc1Cl | 11.2 µM | 25.2 µM | 14 µM | 27.3 | 13.7 µM | 33.4 | 15.4 µM | 30 µM | 13.5 µM | 26.6 µM | 0.839 µM | 12.8 µM | 12.9 µM | 26.2 | 1.57 µM | 8.34 µM | 2.04 µM | 8.51 µM | 16.3 µM | 30.4 µM
18 | COC(=O)C1(C)CCCC2(C)c3cc(OC)ccc3C(=O)C(Br)C12 (stereo not given) |  | > 10 µM |  | > 10 |  | 4.17 |  | > 10 µM |  | 7.29 µM |  | > 10 µM |  | > 10 |  | > 10 µM |  | > 10 µM |  | > 10 µM
19 | O=c1c2cc(O)c(O)cc2oc2cc(O)c(C3OC(CO)C(O)C(O)C3O)c(O)c12 (stereo not given) |  | > 100 µM |  | > 100 |  | > 100 |  | > 100 µM |  | > 100 µM |  | > 100 µM |  | > 100 |  | > 100 µM |  | > 100 µM |  | > 100 µM
20 | N[C@@H](CSSC[C@H](N)C(=O)N1CCn2cc(-c3ccccc3)nc2[C@@H]1CC1CCCCC1)C(=O)N1CCn2cc(-c3ccccc3)nc2[C@@H]1CC1CCCCC1 | 0.837 µM | 2.28 µM | 1.36 µM | 2.85 | 1.74 µM | > 21.4 | 0.331 µM | 1.45 µM | 1.79 µM | 3.27 µM | 2.45 µM | 5.8 µM | 1.63 µM | 3.42 | 0.843 µM | 2.32 µM | 1.91 µM | 4.6 µM | 1.75 µM | 3.55 µM
21 | Cc1ccc(S(=O)(=O)CC2(Br)CCc3ccccc3C2=O)cc1 (stereo not given) |  | 44.9 µM |  | > 100 |  | > 100 |  | 40.3 µM |  | 43.6 µM |  | > 100 µM |  | 58.6 |  | 67.9 µM |  | 53.4 µM |  | > 100 µM
